How the values were obtained:
Assay type in all cases: cell-based
[1] = test system: Karpas-299 cells; experiment: Karpas-299 cell proliferation assay (CellTiter-Glo); conditions: Homo sapiens, 72 h; Karpas-299 cell line (NPM-ALK); 3 days incubation; at least duplicate experiments; read-out: Prolif. IC50
Procedure: The effect of inhibitors on the proliferation of Karpas-299 cells (DSMZ no. ACC 31) was determined using the following protocol. Karpas-299 cells were plated in 96-well white tissue culture treated plates (Corning 3917) in growth medium (RPMI, 10% FCS) at a density of 5000 cells/well in a total volume of 135 μL and incubated at 37° C., 5% CO2, 95% humidity overnight. The following day, one-tenth volume of a 10× concentration of compounds was added to the wells in an 8-point dilution series. Compounds were serially diluted (1:4) in DMSO from a 10 mM stock solution prior to dilution in growth media to the 10× working concentrations (5% DMSO). Final concentration of DMSO in compound-treated wells was 0.5%. Control wells containing growth media or growth media/0.5% DMSO were included in all test plates. […] Once the compounds were added to the cells, plates were incubated for 3 days at 37° C., 5% CO2 at 95% humidity. After 72 hours, all cells and reagents were equilibrated to room temperature and 15 μL of CellTiter-Glo reagent (Promega # G7573) was added to each well. Plates were shaken on a platform for 10 minutes at room temperature prior to reading luminescence. The value of the signal of the control wells was set as 100% growth and growth inhibition was expressed as percent of control. IC50 values were determined from the percent of control data using a standard four-parameter curve fit equation.
(§1) The IC50 values of exemplary compounds of the present invention determined in a cell proliferation assay using the Karpas-299 cell line according to the procedures described herein in at least duplicate experiments are abbreviated as follows and are shown in Table 5: A, IC50≦0.05 μM; B, 0.05 μM<IC50≦0.2 μM; C, 0.2 μM<IC50≦1 μM; D, IC50>1 μM; ND, not determined. The Example # of Table 5 corresponds to the compound example number as illustrated in the Examples section.
The Karpas-299 cell line has a t(2; 5) chromosomal translocation and expresses the NPM-ALK fusion protein, resulting in constitutively active ALK. […] Ther. 6(12):3314-22 (2007)]. With this “ALK-driven” cell line, the cell proliferation IC50 values can thus be used as surrogate for the p-ALK cell mechanistic IC50 values.

[2] = test system: MKN45 cells; experiment: MKN45 cell proliferation assay (CellTiter-Glo); conditions: Homo sapiens, MKN-45, 72 h; MKN45 cell line; 3 days incubation; at least duplicate experiments; read-out: Prolif. IC50
Procedure: The effect of inhibitors on the proliferation of MKN45 cells was determined using the following protocol. MKN45 cells were plated in Corning 3917 96-well white tissue culture treated plates in growth medium (RPMI, 10% FCS) at a density of 5000 cells/well in a total volume of 135 μL and incubated at 37° C., 5% CO2, 95% humidity overnight. The following day, one-tenth volume of a 10× concentration of compounds was added to the wells in an 8-point dilution series. The dilution series was composed of an initial 1:5 dilution of a 10 mM stock of compound in DMSO, followed by serial 1:4 dilutions in DMSO, then a 1:20 dilution in growth medium prior to the 1:10 dilution into the cell plate. […] The typical dilution range is 10 μM to 0.6 nM. Once the compound was added to the cells, plates were incubated for 3 days at 37° C., 5% CO2 at 95% humidity. On the third day, after allowing all cells and reagents to come to room temperature, 25 μL of CellTiter-Glo reagent (Promega #G7573) was added to the wells. Plates were shaken on a platform for 10 minutes prior to reading luminescence for 0.1 seconds. The signal of the control wells was taken as 100% growth and growth inhibition was expressed as percent of control. IC50 values were determined from the percent of control data using a standard four-parameter model.
as §1, with “the MKN45” for “the Karpas-299”, “Table 2:” for “Table 5:”, “Table 2” for “Table 5”
Treatment of this cell line with a selective c-MET inhibitor led to induction of apoptosis and inhibition of proliferation, whereas non-MET-amplified cell lines were not affected [Smolen et al., Proc. Natl. Acad. Sci. USA, 103(7):2316-2321 (2006)]. This cell line is thus “driven” by c-MET, and antiproliferative effects correlate very well with the inhibition of c-MET phosphorylation so that the cell proliferation IC50, values can be used as surrogate for the c-MET cell mechanistic IC50, values. Under the assay conditions described herein, the IC50 values correlate nearly 1:1.

[3] = molecular target: T1, RON (Homo sapiens, UniProt Q04912); experiment: sfRON cell mechanistic assay (HeLa), phosphorylated RON ELISA; conditions: HeLa cells transfected with sfRON; inhibition of phosphorylated RON; four hours incubation; at least duplicate experiments; read-out: sfRON mech IC50
T1 sequence (Q04912 913-1400): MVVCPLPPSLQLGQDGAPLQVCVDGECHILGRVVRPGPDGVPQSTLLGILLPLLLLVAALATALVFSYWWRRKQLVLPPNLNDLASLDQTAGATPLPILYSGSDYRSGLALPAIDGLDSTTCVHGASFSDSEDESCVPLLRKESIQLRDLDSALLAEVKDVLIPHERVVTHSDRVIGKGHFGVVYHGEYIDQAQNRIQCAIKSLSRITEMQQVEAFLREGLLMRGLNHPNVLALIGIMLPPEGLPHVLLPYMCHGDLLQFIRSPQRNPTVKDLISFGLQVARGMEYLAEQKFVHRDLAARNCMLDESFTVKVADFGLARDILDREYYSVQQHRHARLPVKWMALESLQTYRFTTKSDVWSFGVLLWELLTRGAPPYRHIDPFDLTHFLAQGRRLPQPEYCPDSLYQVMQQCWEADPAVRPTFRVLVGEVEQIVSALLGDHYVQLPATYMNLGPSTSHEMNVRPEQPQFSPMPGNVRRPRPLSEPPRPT
Procedure: The cellular activity of the compounds of the present invention against RON may be determined by the following procedure. HeLa cells were plated in Falcon 3072 96-well plates in growth media (DMEM, 10% FBS, 1% L-glutamine) at a density of 10000 cells/well and incubated at 37° C., 5% CO2 overnight. The following day, cells were transfected with 0.2 μg sfRON-pcDNA plasmid DNA with 0.5 μL Lipofectamine-2000 per well in the presence of 50 μL OPTI-MEM, incubated at 37° C., 5% CO2 overnight. Costar 3915 96-well assay plates were coated with rabbit Anti-RON antibody at 2.0 μg/mL, sealed, and incubated overnight at 4° C. On the third day, coated plates were washed with PBS and blocked with 3% BSA. For the sfRON transfected cells, one-tenth volume of a 10× concentration of compounds was added to the wells in a 6-point dilution series. The dilution series was composed of an initial 1:5 dilution of a 10 mM DMSO stock solution of compound in DMSO, followed by a 1:10 dilution in growth media, for a final DMSO concentration on cells of 0.5%. Control wells were treated with 0.5% DMSO. The typical range of dilution was 10 μM to 3 nM. Once compound was added to the cells, plates were incubated for four hours at 37° C., 5% CO2. Plates were then washed in PBS, and lysed in triton-based lysis buffer. Lysates were transferred to the blocked capture plates. The phosphorylated RON levels were measured by incubating with a Goat polyclonal antibody against phosphorylated RON ([pYpY1238/1239]) followed by an anti-Goat antibody conjugated to HRP. Signal was measured on a Wallac Victor plate reader with luminance. The DMSO signal of the control wells was defined as 100% and the percent of inhibition of phosphorylated RON was expressed as percent of control. IC50 values were determined from the percent of control data using a standard four-parameter model.
The IC50 values of exemplary compounds of the present invention determined in a sfRON cell mechanistic assay using the HeLa cell line according to the procedures described herein in at least duplicate experiments are abbreviated as follows and are shown in Table 3: A, IC50≦0.2 μM; B, 0.2 μM<IC50≦1.0 μM; C, IC50>1 μM; ND, not determined. The Example # of Table 3 corresponds to the compound example number as illustrated in the Examples section.

With Cc1c(-c2cnc3[nH]cc([C@H](C)c4c(OC(F)F)ccc(F)c4Cl)c3c2)cnn1[C@H]1CC[C@H](N)CC1 [Example 93, trans-4-[4-(3-{(1S)-1-[2-Chloro-6-(difluoromethoxy)-3-fluorophenyl]ethyl}-1H-pyrrolo[2,3-b]pyridin-5-yl)-5-methyl-1H-pyrazol-1-yl]cyclohexanamine] the IC50 [1] was ≤ 50 nM, the IC50 [2] was ≤ 50 nM and the IC50 [3] was ≤ 200 nM.
In the case of N#CC(c1c(Cl)ccc(F)c1Cl)c1c[nH]c2ncc(-c3cnn([C@H]4CC[C@H](O)CC4)c3F)cc12 (stereo partly drawn) [Example 109], the IC50 [1] is reported as 200 to 1000 nM, the IC50 [2] is reported as 50 to 200 nM and the IC50 [3] is reported as 200 to 1000 nM.
With COc1c(F)ccc(Cl)c1C(C)c1c[nH]c2ncc(-c3cnn([C@H]4CC[C@H](O)CC4)c3C)cc12 (stereo partly drawn) [Example 112, trans-4-(4-{3-[1-(6-Chloro-3-fluoro-2-methoxyphenyl)ethyl]-1H-pyrrolo[2,3-b]pyridin-5-yl}-5-methyl-1H-pyrazol-1-yl)cyclohexanol] the IC50 [1] was 200 to 1000 nM, the IC50 [2] was > 1000 nM and the IC50 [3] was > 1000 nM.
In the case of [2H]C([2H])([2H])[C@H](c1c(OC(F)F)ccc(F)c1Cl)c1c[nH]c2ncc(-c3cnn([C@H]4CC[C@H](O)CC4)c3C)cc12 [Example 113, trans-4-(4-{3-[(1S)-1-[2-Chloro-6-(difluoromethoxy)-3-fluorophenyl](2,2,2-^2H3)ethyl]-1H-pyrrolo[2,3-b]pyridin-5-yl}-5-methyl-1H-pyrazol-1-yl)cyclohexanol], the IC50 [1] is reported as ≤ 50 nM, the IC50 [2] is reported as ≤ 50 nM and the IC50 [3] is reported as ≤ 200 nM.
For [2H][C@@](C)(c1c(OC(F)F)ccc(F)c1Cl)c1c[nH]c2ncc(-c3cnn([C@H]4CC[C@H](O)CC4)c3C)cc12 [Example 114, trans-4-(4-{3-[(1S)-1-[2-Chloro-6-(difluoromethoxy)-3-fluorophenyl](1-^2H)ethyl]-1H-pyrrolo[2,3-b]pyridin-5-yl}-5-methyl-1H-pyrazol-1-yl)cyclohexanol], the IC50 [1] was ≤ 50 nM, the IC50 [2] was ≤ 50 nM and the IC50 [3] was ≤ 200 nM.
In the case of Cc1c(-c2cnc3[nH]cc(C(C)c4c(Cl)ccc(F)c4O)c3c2)cnn1[C@H]1CC[C@H](O)CC1 (stereo partly drawn) [Example 115, 3-Chloro-6-fluoro-2-(1-{5-[1-(trans-4-hydroxycyclohexyl)-5-methyl-1H-pyrazol-4-yl]-1H-pyrrolo[2,3-b]pyridin-3-yl}ethyl)-phenol], the IC50 [1] is reported as ≤ 50 nM, the IC50 [2] is reported as 50 to 200 nM and the IC50 [3] is reported as > 1000 nM.
For Cc1c(-c2cnc3[nH]cc([C@H](CF)c4c(Cl)ccc(F)c4Cl)c3c2)cnn1[C@H]1CC[C@H](O)CC1 [Example 118, trans-4-(4-{3-[(1S)-1-(2,6-Dichloro-3-fluorophenyl)-2-fluoroethyl]-1H-pyrrolo[2,3-b]pyridin-5-yl}-5-methyl-1H-pyrazol-1-yl)cyclohexanol], the IC50 [1] was 50 to 200 nM, the IC50 [2] was 50 to 200 nM and the IC50 [3] was 200 to 1000 nM.
With COc1ccc(F)c(Cl)c1[C@H](CF)c1c[nH]c2ncc(-c3cnn([C@H]4CC[C@H](O)CC4)c3C)cc12 [Example 120, trans-4-(4-{3-[(1R)-1-(2-Chloro-3-fluoro-6-methoxyphenyl)-2-fluoroethyl]-1H-pyrrolo[2,3-b]pyridin-5-yl}-5-methyl-1H-pyrazol-1-yl)cyclohexanol] the IC50 [1] was 200 to 1000 nM, the IC50 [2] was 200 to 1000 nM and the IC50 [3] was > 1000 nM.

— patent US8445510B2, “Fused bicyclic kinase inhibitors” (OSI Pharmaceuticals, LLC, priority 2011, dated 2013)
